Reference: PubChem BioAssay (NCI)
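In this assay, cells in 96-well plates receive the compound at five concentrations for 48 hours. Endpoints are linearly interpolated between the surrounding concentrations. GI50: concentration for 50% inhibition of growth. TGI: total growth inhibition.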

Assays:
Assay in all cases: DTP human tumour cell line panel, 48 h
NCI/ADR-RES ovarian = test system: NCI/ADR-RES ovarian
A498 renal = test system: A498 renal
MALME-3M melanoma = test system: MALME-3M melanoma
LOX IMVI melanoma = test system: LOX IMVI melanoma
HT29 colon = test system: HT29 colon
SN12C renal = test system: SN12C renal
786-0 renal = test system: 786-0 renal
SF-539 CNS = test system: SF-539 CNS
ACHN renal = test system: ACHN renal
SW-620 colon = test system: SW-620 colon

| SMILES | TGI (NCI/ADR-RES ovarian) [µM] | TGI (A498 renal) [µM] | TGI (MALME-3M melanoma) [µM] | TGI (LOX IMVI melanoma) [µM] | TGI (HT29 colon) [µM] | TGI (SN12C renal) [µM] | TGI (786-0 renal) [µM] | TGI (SF-539 CNS) [µM] | TGI (ACHN renal) [µM] | TGI (SW-620 colon) [µM] | GI50 (NCI/ADR-RES ovarian) [µM] | GI50 (A498 renal) [µM] | GI50 (MALME-3M melanoma) [µM] | GI50 (HT29 colon) [µM] | GI50 (SN12C renal) [µM] | GI50 (SF-539 CNS) [µM] | GI50 (ACHN renal) [µM] |
| --- | --- | --- | --- | --- | --- | --- | --- | --- | --- | --- | --- | --- | --- | --- | --- | --- | --- |
| COc1ccc(C2=Nn3c(C)nnc3S/C2=C\c2ccc(-c3ccc([N+](=O)[O-])cc3)o2)cc1 | 23.2 | 89.8 | 86.3 | 30.3 | 43 | 33.6 | 22 | 25.6 | 25.3 |  |  |  |  |  |  |  |  |
| O=C(O)c1cc2sc(C(=O)O)cc2s1 |  | > 100 | > 100 | > 100 | > 100 | > 100 |  | > 100 |  | > 100 |  |  |  |  |  |  |  |
| CCOC(=O)C(C(=O)OCC)C(=S)NC1OC(COC(C)=O)C(OC(C)=O)C(OC(C)=O)C1OC(C)=O (configuration not stated) | > 100 | > 100 | > 100 | > 100 | > 100 | > 100 | > 100 | > 100 |  | > 100 |  |  |  |  |  |  |  |
| Cc1nc2c(ccc3[nH]c4ccccc4c32)s1 | > 100 | 34.9 | > 100 |  | 31.3 | 76.9 | > 100 | > 100 | > 100 | 45.4 |  |  |  |  |  |  |  |
| COc1cc2oc(=O)cc(C)c2c(OC)c1OC | > 100 | 96.8 | > 100 | > 100 | > 100 | > 100 | > 100 |  | > 100 | > 100 |  |  |  |  |  |  |  |
| CCN(CC)C(=O)N1CN(c2ccccc2)C2(CCN(CCCC3(c4ccc(F)cc4)OCCO3)CC2)C1=O | 46.4 |  | 36.5 | 26.2 |  | 32.8 | 33.6 | 32 |  | 40.4 |  |  |  |  |  |  |  |
| O=[N+]([O-])c1cc(C2ON=C(c3ccccc3)N2C23CC4CC(CC(C4)C2)C3)ccc1Cl (configuration not stated) | > 100 | > 100 | > 100 | > 100 | > 100 | > 100 | > 100 | > 100 | > 100 |  |  |  |  |  |  |  |  |
| Cc1c(OCc2cccc3ccccc23)ccc2c(=O)cc(S)oc12 | > 100 | > 100 |  | 47.5 | > 100 | > 100 | > 100 | 65.2 | > 100 | > 100 |  |  |  |  |  |  |  |
| CC(C)N=C(NC#N)NS(=O)(=O)c1cnccc1NC1CCCCCCC1 | > 100 | > 100 | > 100 |  | > 100 | > 100 | > 100 |  | > 100 | > 100 |  |  |  |  |  |  |  |
| O=c1ccc2c(Cl)sc(Cl)c2[nH]1 | > 100 |  | > 100 | > 100 | > 100 | > 100 | > 100 |  | > 100 | > 100 |  |  |  |  |  |  |  |
| COC(=O)c1cc(OCc2cc(OCc3ccc(Br)cc3)cc(OCc3ccc(Br)cc3)c2)cc(OCc2cc(OCc3ccc(Br)cc3)cc(OCc3ccc(Br)cc3)c2)c1 | > 100 | > 100 | > 100 |  |  | > 100 | > 100 | > 100 | > 100 |  |  |  |  |  |  |  |  |
| Cc1cc(NS(=O)(=O)c2ccc(N=Nc3c(Nc4ccccc4)nn(-c4ccc(S(=O)(=O)Nc5ccncn5)cc4)c3C)cc2)no1 | > 100 |  | > 100 | > 100 | > 100 | > 100 | > 100 | > 100 | > 100 |  |  |  |  |  |  |  |  |
| CSc1c(C#N)c(=O)n(N)c2n[nH]c(C)c12 | > 100 | > 100 | > 100 | > 100 | > 100 | > 100 | > 100 | > 100 |  | > 100 |  |  |  |  |  |  |  |
| O=C(O)Cc1ccc(-n2nnc3c(=O)[nH][nH]c(=O)c32)cc1 | > 100 |  | > 100 | > 100 | > 100 | > 100 | > 100 |  | > 100 |  |  |  |  |  |  |  |  |
| COc1ccc(-c2nc3ccccc3c(=O)[nH]2)cc1OC | > 100 |  | > 100 |  | > 100 | > 100 | > 100 | 80.5 |  | > 100 |  |  |  |  |  |  |  |
| CCCCCCCCC[C@@H]1C[C@H](O)[C@H](Cc2ccccc2)N1C(=O)OC(C)(C)C |  | 33.7 | 34.5 |  | 31.5 | 31 |  | 37.2 | 30.8 | 38.4 |  |  |  |  |  |  |  |
| COc1cc(/C=C2\CCCC3=C2N=C2SC=NN2C3c2cc(OC)c(OC)c(OC)c2)cc(OC)c1OC (configuration not stated) | > 100 | 3.89 | 7.09 |  | 7.41 | 7.11 |  | > 100 | 3.74 |  | 3.45 | 1.48 | 2.99 | 3.07 | 2.39 | 2.9 | 1.88 |
| c1ccc2c(CCNC3=NCCO3)cccc2c1 | > 10 | > 10 | > 10 | > 10 | > 10 |  |  | > 10 | > 10 | > 10 |  |  |  |  |  |  |  |
| O=C1C=C(NCCc2ccc(O)cc2)C(=O)C=C1NCCc1ccc(O)cc1 | > 100 | > 100 | > 100 | > 100 | > 100 | > 100 | > 100 |  | > 100 | > 100 |  |  |  |  |  |  |  |
| CC(C)(C)OC(=O)/C=C/[C@@H](CCC(=O)/C=C/[C@H](/C=C\CCCC(=O)O)NC1(c2ccccc2)c2ccccc2-c2ccccc21)O[Si](C)(C)C(C)(C)C | 32.6 | 34 |  | 27.6 | 30.1 | 32.4 | 33.3 | 36.6 | 36.3 | 81.6 |  |  |  |  |  |  |  |
| COc1ccc(C(CC(=O)c2ccc(O)cc2)C(C(=O)c2ccc(O)cc2)C(c2ccc(OC)cc2)C2C(=O)NC(=S)NC2=O)cc1 (configuration not stated) | > 100 | > 100 |  | 38 | > 100 | 57 | 44.2 |  | 43.6 | 55.7 |  |  |  |  |  |  |  |
| CN1CCN2CCN(C)CCN(CC1)CC2 | > 100 | > 100 |  | > 100 | > 100 | > 100 | > 100 | > 100 | > 100 | > 100 |  |  |  |  |  |  |  |
| FC1(F)SC2CCCCCCCCCCC2C1(F)F (configuration not stated) | > 100 |  | 59.6 | 31.6 | 96.5 |  | > 100 |  | 73.8 |  |  |  |  |  |  |  |  |
